Data on five molecules can be found in article PMC6984732, “Thymidine phosphorylase and prostrate cancer cell proliferation inhibitory activities of synthetic 4-hydroxybenzohydrazides: In vitro, kinetic, and in silico studies” (PLoS ONE, 2020).

The term inhibition denotes the percentage by which the read-out fell short of the control. A word on the IC50: it is the concentration that inhibits the measured activity by half. By Ki is commonly meant a dissociation constant, usually derived from enzyme kinetics or from competition with a known ligand.

In experiment [1] the target is T1, thymidine phosphorylase (TP) (Escherichia coli, UniProt P07650).
T1 construct: purchased Sigma Aldrich, USA; host or cells: E. coli
Kind of experiment: Thymidine phosphorylase inhibition assay (spectrophotometric, 290 nm). In kind it is biochemical, E. coli. The note with it: for inhibition: read-out: Percent Inhibition of thymidine phosphorylase, 10 μL of test compound (0.5 mM in dimethylsulfoxide) per well, <50% regarded inactive; for IC50: recombinant TP expressed in E. coli, substrate thymidine, pH 7.0, 30°C, N.A. = not active, read-out: IC50 (μM ± SEM), thymidine phosphorylase inhibition. As to the method:
Since human TP is not commercially available, we used commercially available recombinant TP (expressed in E. coli) enzyme. Primary sequence of TP is mostly conserved throughout the evolution and mammalian TP share 39% sequence similarity with TP of E. coli. The mammalian enzyme also shares 65–70% similarity with the active site residues of E. coli TP enzyme.
Assay for TP inhibition was performed spectrophotometrically, following the method of Bera et al. with some modifications. Enzyme TP catalyzed the reversible phosphorolysis of thymidine to thymine and 2-deoxyribose-1-phosphate. Reaction mixture contained 150 μL of potassium phosphate buffer (pH 7.0, 50 mM), 20 μL of enzyme (0.058 U/well), and 10 μL of test compound (0.5 mM in dimethylsulfoxide). The reaction mixture was incubated for 10 min at 30°C. 20 μL of substrate (1.5 mM) was then added and change in absorbance was recorded after every minute for a total time period of 10 minutes at 290 nm in ELISA plate reader (Spectra Max-340, Molecular Devices, CA, USA).
We have used the 96-well UV-plates, purchased from Corning (Catalogue No. COSTAR 3635, Lot No. 00912050). […] We then added the substrate (thymidine), and recorded the final readings.

Experiment [2] concerns the target T1, thymidine phosphorylase (TP). As to the kind of experiment: Kinetic studies on thymidine phosphorylase (Lineweaver-Burk, secondary re-plot, Dixon plot). In kind it is biochemical, E. coli. The note with it: thymidine as variable substrate; for Inhibition Type: from Lineweaver-Burk plot; for Ki: secondary re-plot of Lineweaver-Burk plot, reconfirmed by Dixon plot, read-out: Ki (μM ± SEM). As to the method:
Kinetic studies were carried out to identify the mechanism of inhibition by these compounds. Inhibitor could bind with the enzyme in multiple ways, such as in competitive, non-competitive, mixed or uncompetitive way. In kinetic assay, the enzyme (0.058 U/200 μL) was incubated with different concentrations of inhibitor for 10 min at 30°C. The reaction was then initiated by adding different concentrations (0.1875–1.5 mM) of substrate (thymidine), and the resulting degradation of thymidine was measured continuously at 290 nm for 10 min on ELISA plate reader. Every experiment was run in triplicate.
Lineweaver-Burk plot was plotted to determine the type of inhibition. This was accomplished by plotting the reciprocal of the rate of reaction against the reciprocal of the substrate concentration. Ki values were determined by secondary re-plot of Lineweaver-Burk plot, and reconfirmed by Dixon plot.

In experiment [3] the test system is mouse fibroblast (3T3) cells. Kind of experiment: MTT anti-proliferative (cytotoxicity) assay, 3T3 cells. The conditions noted are these: NIH3T3, 48 h incubation, mouse fibroblast normal cell line, read-out: IC50 ± Standard Deviation, 3T3 Cell Line. In kind it is cell-based. As to the method:
(§1) Anti-proliferative activity of active compounds was evaluated by using the standard MTT (3-[4,5-dimethylthiazole-2-yl]-2,5-diphenyl-tetrazolium bromide) colorimetric assay in 96-well plate.
(§2) It is a colorimetric assay that measures the reduction of MTT by mitochondrial enzyme i.e. succinate dehydrogenase. The MTT enters into the mitochondria of cell, where it is reduced to an insoluble formazan salt. As reduction of MTT can only occur in metabolically active cells, the level of activity is actually a measure of the viability of the cells.
(§3) Mouse fibroblast normal cell line 3T3, and prostate cancer line (PC3) were cultured separately in DMEM, supplemented with 5% of FBS, 100 IU/mL of penicillin and 100 μg/mL of streptomycin, and kept at 37°C in 5% CO2 incubator. For the preparation of cell culture, 100 μL/well of cell solution (5 x 10^4 cells/mL) was added into 96-well plate. The plate was incubated for overnight, and fresh medium was added after the removal of old medium. The test compounds were also added in different concentrations into the plate, and again incubated for 48 h. After the completion of this incubation period, 200 μL MTT (0.5 mg/mL) was added, and plate was again incubated for 4 h, after this final incubation, 100 μL of DMSO was added to each well. The level of MTT reduction to formazan was evaluated by change in absorbance at 540 nm for 3T3, and 570 nm for PC3 using a micro-plate reader (Spectra Max plus, Molecular Devices, CA, USA).

In experiment [4] the test system is prostate cancer (PC3) cells. As to the kind of experiment: MTT anti-proliferative assay, PC3 cells. In kind it is cell-based. The conditions noted are these: Homo sapiens, PC-3, 48 h incubation, prostate cancer cell line, read-out: IC50 ± Standard Deviation, PC3 Cell Line. As to the method:
as §1, §2, §3
A general note: Tetrazolium assays rely on reduction of a dye to a coloured formazan, in cell work by metabolically active cells.

T1 sequence (P07650 whole entry): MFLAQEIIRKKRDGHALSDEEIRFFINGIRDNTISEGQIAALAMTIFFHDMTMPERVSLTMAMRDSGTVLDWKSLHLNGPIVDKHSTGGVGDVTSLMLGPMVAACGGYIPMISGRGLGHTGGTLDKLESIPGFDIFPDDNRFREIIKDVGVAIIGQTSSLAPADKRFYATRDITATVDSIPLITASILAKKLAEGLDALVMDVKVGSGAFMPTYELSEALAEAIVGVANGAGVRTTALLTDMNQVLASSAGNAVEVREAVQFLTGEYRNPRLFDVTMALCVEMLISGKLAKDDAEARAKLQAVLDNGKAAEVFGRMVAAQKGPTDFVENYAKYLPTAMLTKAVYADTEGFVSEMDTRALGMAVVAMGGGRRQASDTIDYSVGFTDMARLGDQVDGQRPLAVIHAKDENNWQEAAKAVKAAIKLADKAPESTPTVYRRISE

Take `O=C(NN=Cc1ccc(Cl)cc1)c1ccc(O)cc1` [Compound 9, N'-[(E)-(4^′-Chlorophenyl)methylidene]-4-hydroxylbenzohydrazide]: in experiment [1], the inhibition turned out to be 99%. Besides, the figures for the half-maximal inhibitory concentration (IC50) in experiment [1], in experiment [3] and in experiment [4] were 159 ± 0.4 µM, above 30 µM and above 30 µM, respectively. The “Inhibition Type” value in experiment [2] is “Uncompetitive”. Besides, the Ki in experiment [2] was found to be 138 ± 0.009 µM.
Take `O=C(N/N=C/c1ccc(O)c(O)c1)c1ccc(O)cc1` [Compound 3, N'-[(E)-(3^′,4^′-Dihydroxylphenyl)methylidene]-4-hydroxylbenzohydrazide]: in experiment [1], the inhibition was 99.3%. For the same molecule, the “Inhibition Type” value in experiment [2] is recorded as “Uncompetitive”. Besides, the IC50 in experiment [3] is 23.5 ± 1.1 µM; in experiment [4], above 30 µM.
Take `CC/C(=N\NC(=O)c1ccc(O)cc1)c1cc(O)ccc1O` [Compound 29, N'-[(E)-1-(2^′,5^′-Dihydroxylphenyl)propylidene]-4-hydroxylbenzohydrazide]: the inhibition in experiment [1] was determined as 99%. The IC50 is 173 ± 1.4 µM in experiment [1], 19.5 ± 0.9 µM in experiment [3] and above 30 µM in experiment [4]. Also, the “Inhibition Type” value in experiment [2] is given as “Uncompetitive”.
Consider `O=C(NN=Cc1cc(Br)cc(Br)c1O)c1ccc(O)cc1` [Compound 22, N'-[(E)-(3^′,5^′-Dibromo-2^′-hydroxylphenyl)methylidene]-4-hydroxylbenzohydrazide], for which, in experiment [1], the inhibition is 99.9% and the IC50 came to 6.8 ± 0.7 µM. In experiment [2], the “Inhibition Type” value is “Non-competitive” and the Ki stood at 1.75 ± 0.009 µM. The IC50 in experiment [3] amounted to 9.2 ± 0.1 µM. In experiment [4], the concentration for half-maximal inhibition (IC50) was 8.3 ± 0.9 µM.
For `C/C(=N\NC(=O)c1ccc(O)cc1)c1c(O)cccc1O` [Compound 27, N'-[(E)-1-(2^′,6^′-Dihydroxylphenyl)ethylidene]-4-hydroxylbenzohydrazide], the inhibition in experiment [1] worked out at 93%. In experiment [2], the “Inhibition Type” value is on record as “Uncompetitive”. Besides, the half-maximal inhibitory concentration (IC50) in experiment [3] was 26.7 ± 1 µM; in experiment [4], above 30 µM.
